# “Also recorded” adds a separate entry of the source. Ends that are not written are not given here.
# B1: PlGF: placenta growth factor (R & D Systems) (protein)
# chain: AVPPQQWALSAGNGSSEVEVVPFQEVWGRSYCRALERLVDVVSEYPSEVEHMFSPSCVSLLRCTGCCGDENLHCVPVETANVTMQLLKIRSGDRPSYVELTFSQHVRCECRPLREKMKPERCGDAVPRR
# What was measured:
# [1] = test system: KDR; test: Displacement of 125I-VEGF165 binding to CHO-KDR transfected cells by V1 derivatives; details: for peptide efficiency after change of C-terminal arginine: compared with V1; for Efficiency (% Emax): relative to V1 = 100
# Source text: FIG. 11. […] Experimental conditions are indicated in the legend of FIG. 10.
# FIG. 12. […] Experimental conditions are indicated in the legend of FIG. 10.
# (§1) Experimental conditions are indicated in the legend of FIG. 10.
# FIG. 17. […] Experimental conditions are indicated in the legend of FIG. 10.
# [2] = target: T1, KDR (Homo sapiens, UniProt P35968); test: HUAE cell proliferation induced by KDR anti-idiotypic antibodies (AIA); format: cell-based; details: 100 ng/ml KDR anti-idiotypic antibodies, peptide daily, 5 days
# T1 construct: endogenous in cells; host or cells: HUAE cells
# Experimental: (§2) FIG. 7. […] Cells were counted after 5 days. Data are means of proliferation inhibition percentages for triplicate samples.
# (§3) Cell proliferation assay. To test the anti-VEGF antibody neutralizing effect, CPAE cells were plated into 96-well tissue culture plates at a density of 500 cells/well. After 24 h, various concentrations of anti-VEGF antibody were added. The cells were cultured for an additional day and cell proliferation was measured using the Cell proliferation ELISA kit from Boerhinger (Indianapolis, Ind.). Cells were incubated with BrdU for 4 h at 37° C., and the incorporation of BrdU in newly synthetized DNA was quantified by immunoassay as described by the manufacturer. To investigate the peptide effect, after 24 h of CPAE cell growth, 2.1×10^−4M synthetic peptides were added daily to the culture medium. Cell proliferation was assessed after 24 h, 48 h or 72 h as described above. […] Cells were trypsinized and counted after 5 days using a Coulter counter.
# [3] = test system: NIH 3T3 fibroblasts; test: NIH3T3 fibroblast proliferation; format: cell-based; details: 24 h
# Experimental: FIG. 8. V1 acts specifically on endothelial cells. CPAE and NIH 3T3 fibroblasts were cultured with or without V1 peptide, and the changes in cell proliferation were measured after 24 h. Data represent the means and standard deviations of proliferation inhibition percentages for triplicate samples, and similar results were obtained in two independent experiments.
# as §3
# [4] = test system: Human Umbilical Artery Endothelial Cells (HUAE); test: HUAE cell proliferation induced by VEGF; format: cell-based; details: 2 ng/ml VEGF, peptide daily, 5 days
# Experimental: as §2, §3
# [5] = test system: KDR; test: Competition assay of 125I-VEGF binding to CHO-KDR cells; design: block of VEGF binding to CHO-KDR cells: dose or concentration left out as unconfirmed; details: for inhibitory effect on VEGF binding to KDR: fixed peptide concentration 2.1×10^−4M, heparin 1.8 μg/ml
# Experimental: FIG. 1. […] (B) Effect of heparin. […] Data correspond to the mean and standard deviations of triplicate samples.
# FIG. 4. […] Data represent the means and standard deviations of triplicate samples.
# FIG. 5. […] Data represent the mean and standard deviations of triplicate samples.
# (§4) Competition assay of binding to CHO-KDR cells. CHO-KDR cells were seeded in 24-well plates at a density of 5×10^5 cells/well. After 24 h, subconfluent plates were transferred at 4° C., and all subsequent operations were done at 4° C. […] After 3 h, cells were washed five times with binding buffer and solubilized by the addition of 0.5 M NaOH. The amount of radioactivity bound to the cells was counted in a gamma counter (LKB 1261 Multigamma). The receptor affinity and the number of binding sites per cell were determined by Scatchard's analysis (Scatchard, 1986).
# [6] = test system: Human umbilical vein endothelial cell (HUVEC); test: VEGF165 induced HUVEC proliferation; format: cell-based; details: V1 400 μg/ml, various VEGF165 concentrations, 96 hours
# Experimental: FIG. 13. Effect of V1 (400 μg/ml) VEGF165 induced HUVEC proliferation. Various concentrations of VEGF165 were added during 96 hours.
# The inhibitory effect of V1 on Human umbilical vein endothelial cell (HUVEC) in primary culture.
# [7] = test system: KDR; test: ELISA of the phage-displayed peptide binding to CHO-KDR cells; details: clones selected by anti-VEGF antibody binding, 10^12 pfu/ml
# Experimental: FIG. 2. […] Clones selected by KDR binding (10^13 pfu/ml) (A) or by anti-VEGF antibody binding (10^12 pfu/ml) (B) were compared with M13 phage particles (control). Results are representative of three independent assays.
# Exponentially growing CHO-KDR cells were seeded in 96-well microtiter plates at 7×10^4 cells/well and left overnight at 37° C. Cells were fixed with paraformaldehyde (4% in PBS) for 15 min at room temperature and washed with PBS. Wells were then filled with PBS-Glycine 0.2%, kept for 15 min at room temperature and then washed with PBS. Phage particles (10^12 or 10^13/ml) were added to each well and incubated 2 h at room temperature. Wells were washed with PBS and the amount of bound phage was detected with peroxidase-conjugated anti-M13 phage serum (Pharmacia Biotech, Uppsala, Sweden).
# [8] = test system: Calf pulmonary artery endothelial cells (CPAE); test: CPAE cell proliferation assay (BrdU incorporation); format: cell-based; details: 2.1×10^−4M synthetic peptide, 24 h
# Experimental: FIG. 3. The anti-VEGF antibody blocks CPAE cell growth. CPAE cell growth was measured in cultures supplemented with various concentrations of anti-VEGF antibody and compared with untreated cultures. Data represent means and standard deviations of proliferation inhibition for triplicate samples and are representative of two independent experiments.
# FIG. 6. V1 inhibits CPAE cell proliferation. CPAE cell growth was measured after 24h of incubation in presence of synthetic peptides selected by antibody binding (A) or by KDR binding (B) and compared with untreated cultures. Data represent means and standard deviations of proliferation inhibition for triplicates and are representative of three independent experiments.
# as §3
# [9] = test system: VEGF-induced corneal angiogenesis; test: Rabbit corneal pocket assay; format: in vivo, New Zealand rabbit; details: day 12; for effect on VEGF-induced corneal angiogenic response: implant 2 pmol VEGF + 30 nmol peptide; for neovascularization by peptide compared with vehicle alone: implant 30 nmol peptide, absence of VEGF
# Experimental: FIG. 9. V1 inhibits corneal angiogenesis in vivo.
# Rabbit corneal pocket assay. […] These implants were inserted in New Zealand rabbit (Elevage du Trottis, Esperce, France) corneal stroma 2 mm away from the limbus (Favard et al, 1991). Neovascularization was assessed on day 12 by direct examination with a slit lamp and scored according to a 4 grade scale (grade 1: less than 1 mm long neovessels, grade 2: 1 mm long neovessels, grade 3: 1 to 2 mm long neovessels, grade 4: neovessels extending to the implant). Means and standard deviations were determined on 8 implant groups for each condition.
# [10] = test system: VEGF-R2 on HUV-EC Cells; test: 125I-VEGF165 binding to HUV-EC cells (Scatchard); design: species or system human; details: V1 40 μg/ml
# Source text: as §1
# (see FIGS. 16A, B and C).
# [11] = test system: 125I-VEGF-receptor complexes (VEGF-R2, NP1) on HUV-EC cells; test: Cross linking of 125I VEGF165 to HUV-EC cells; format: binding, human; details: V1 2.4×10^−4M and 4.8×10^−4M, 125I VEGF165 160 pM
# Source text: FIG. 19. […] 1: Total binding. […] 3: V1, (2.4×10^−4M). 4: V1, (4.8×10^−4M).
# [12] = target: T2, recombinant KDR expressed at the membrane surface of CHO-KDR cells (UniProt P35968 20-1356, limits assumed); test: displacement of 125I-VEGF165 from CHO-KDR transfected cells
# T2 construct: whole, on cells; also called VEGFR-2; VEGF-R2
# Experimental: as §4, with “5×10⁵” for “5×10^5”
# [13] = heparin various amounts, PlGF 50 ng/ml
# T1 sequence (P35968 20-1356): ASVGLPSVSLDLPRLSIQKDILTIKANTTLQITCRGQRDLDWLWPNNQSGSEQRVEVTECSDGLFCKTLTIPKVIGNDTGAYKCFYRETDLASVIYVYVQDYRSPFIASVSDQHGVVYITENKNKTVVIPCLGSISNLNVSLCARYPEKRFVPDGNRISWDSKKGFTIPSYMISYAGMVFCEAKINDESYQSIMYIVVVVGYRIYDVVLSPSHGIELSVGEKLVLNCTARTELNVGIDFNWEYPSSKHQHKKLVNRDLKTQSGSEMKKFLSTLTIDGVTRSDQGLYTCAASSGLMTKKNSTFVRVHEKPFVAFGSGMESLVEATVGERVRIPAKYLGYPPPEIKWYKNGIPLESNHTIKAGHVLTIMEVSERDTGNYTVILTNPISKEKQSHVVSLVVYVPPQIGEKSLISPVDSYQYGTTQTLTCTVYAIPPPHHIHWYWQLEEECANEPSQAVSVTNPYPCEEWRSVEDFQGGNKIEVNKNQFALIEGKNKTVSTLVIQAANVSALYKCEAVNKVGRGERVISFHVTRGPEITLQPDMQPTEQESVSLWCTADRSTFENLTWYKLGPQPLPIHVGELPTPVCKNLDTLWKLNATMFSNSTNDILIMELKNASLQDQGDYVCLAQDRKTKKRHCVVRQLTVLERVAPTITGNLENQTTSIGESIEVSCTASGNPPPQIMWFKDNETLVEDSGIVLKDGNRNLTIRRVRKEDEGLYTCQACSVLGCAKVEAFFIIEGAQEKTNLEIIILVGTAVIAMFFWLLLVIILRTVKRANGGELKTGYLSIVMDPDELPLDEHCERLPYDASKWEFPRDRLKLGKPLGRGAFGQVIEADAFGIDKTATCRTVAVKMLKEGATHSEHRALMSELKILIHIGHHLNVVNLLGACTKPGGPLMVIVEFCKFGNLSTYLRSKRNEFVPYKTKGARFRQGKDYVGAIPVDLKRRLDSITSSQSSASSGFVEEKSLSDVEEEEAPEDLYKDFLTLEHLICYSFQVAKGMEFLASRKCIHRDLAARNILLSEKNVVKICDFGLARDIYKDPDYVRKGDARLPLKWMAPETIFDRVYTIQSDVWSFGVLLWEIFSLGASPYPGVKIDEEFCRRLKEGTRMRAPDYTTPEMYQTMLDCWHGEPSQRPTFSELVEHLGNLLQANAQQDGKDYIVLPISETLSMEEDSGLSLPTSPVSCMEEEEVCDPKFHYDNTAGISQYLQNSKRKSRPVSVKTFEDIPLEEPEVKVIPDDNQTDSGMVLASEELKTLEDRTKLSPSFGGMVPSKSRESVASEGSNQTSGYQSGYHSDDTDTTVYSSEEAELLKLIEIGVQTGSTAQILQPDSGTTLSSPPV
# T2 sequence (P35968 20-1356 limits assumed): as the sequence (P35968 20-1356) above
molecule,measurement,setting,value
"AAWLPPK [A9, V1 analogue, C-terminal arginine substituted by lysine]",peptide efficiency after change of C-terminal arginine,[1],also reduced the peptide efficiency
AAWLPPR [A2],Efficiency (% Emax),[1],61 % Emax
ATALPP [A10],peptide efficiency after change of C-terminal arginine,[1],significantly reduced the peptide efficiency
ATALPPR [A3],Efficiency (% Emax),[1],70 % Emax
ATWAPPR [A4],Efficiency (% Emax),[1],31 % Emax
ATWLAPR [A5],Efficiency (% Emax),[1],65 % Emax
ATWLPAR [A6],Efficiency (% Emax),[1],84 % Emax
ATWLPPA [A7],activity of alanine-substituted analogues in displacement of 125I-VEGF165,[1]; AlaScan,totally devoid of activity
same,Efficiency (% Emax),[1],0 % Emax
"ATWLPPR [V1, ATWLPPR]",effect on AIA-dependent cell proliferation,[2],could suppress the AIA-dependent cell proliferation
same,effect on binding and affinity of 125I VEGF165 to VR2 on transfected CHO cells,"[1]; 50 μg/ml V1, Scatchard",inhibited the binding; also recorded: affinity is lowered
same,IC50,"[1]; 125I-VEGF 7 pM, heparin 1 μg/ml, 3 hours +4° C., read-out: CI50 (the source's name)",18.8 µM
same,effect on heparin agonistic effect on VEGF165 binding,[1]; V1 50 μg/ml,inhibited this heparin agonistic effect
same,Efficiency (% Emax),[1],100 % Emax
same,effect on NIH 3T3 fibroblast proliferation,[3],did not modify the proliferation
same,effect on VEGF-induced proliferation of human endothelial cells,[4],suppressed the mitogenic activity of VEGF in a dose dependent manner
same,block of VEGF binding to CHO-KDR cells,[5],nearly block VEGF binding
same,inhibitory effect on VEGF binding to KDR,[5],showed an inhibitory effect
same,IC50,"[5]; read-out: IC50 for inhibition of VEGF binding to CHO-KDR cells, estimated",80 µM
same,effect on VEGF-induced HUVEC proliferation,[6],inhibited by V1 in a non competitive manner
same,ELISA signal of phage clone binding to CHO-KDR cells,[7],best reactivities
same,reduction of CPAE cell proliferation,[8],60%
same,effect on VEGF-induced corneal angiogenic response,[9],totally abolished
same,neovascularization by peptide compared with vehicle alone,[9],did not improve the generation of new blood vessels
same,effect on VEGF binding to HUV-EC receptors,[10],inhibited only the VEGF binding to high affinity receptors
same,labeling of 125I-VEGF-receptor complexes (240-260 kDa and 160-170 kDa),[11],decreased
ILDNYKL [V5],effect on VEGF-induced proliferation of human endothelial cells,[4],no inhibitory effect
same,effect on VEGF binding to CHO-KDR cells,"[5]; various concentrations, same conditions as V1",did not modify VEGF binding
same,effect on VEGF-induced corneal angiogenic response,[9],not modified
same,neovascularization by peptide compared with vehicle alone,[9],did not improve the generation of new blood vessels
LPPNPTK [V6],inhibitory effect on VEGF binding to KDR,[5],did not affect the binding of VEGF to KDR; also recorded: no effect on VEGF binding to KDR
same,ELISA signal of phage clone binding to CHO-KDR cells,[7],best reactivities
same,reduction of CPAE cell proliferation,[8],significantly inhibited the proliferation of endothelial cells
SLPAHAR [K4],inhibitory effect on VEGF binding to KDR,[5],could partially inhibit VEGF binding to KDR
same,reduction of CPAE cell proliferation,[8],minor effect on endothelial growth
heparin [reference compound],optimal heparin concentration for increasing VEGF binding,[5],1.8 µg/mL
same,effect on VEGF binding to CHO-KDR cells,[5]; [13],increase the binding of VEGF
ATWLPPA (AlaScan analogue of ATWLPPR) [V1 analogue A7 (Ala7-substituted analogue)],Efficiency (% Emax),[12],0 % Emax
B1,effect on VEGF binding to CHO-KDR cells,[5]; [13],not modifying VEGF binding

# From patent publication US20050019826A1 (priority 2000, published 2005)
